In patent US20260224652A1, “ENRICHED PELARGONIUM GRAVEOLENS EXTRACTS FOR THE TREATMENT OF TRAUMATIC BRAIN INJURIES” (THE STATE OF ISRAEL, MINISTRY OF AGRICULTURE & RURAL …, priority 2023, published 2026):
Counter-ions that a name gives are not always drawn.

Columns and labels:
[1] = target: acetyl choline esterase (Homo sapiens, UniProt P22303); details: in vitro; cited from earlier work
[2] = tested on: mice subjected to a closed head injury (CHI); test: Barnes maze test (learning) after CHI; format: in vivo; details: acquisition days 1-4, two weeks after CHI; oral gavage, 9 daily doses; Pg oil 100 mg/kg, citronellol 25 mg/kg, citronellyl formate 80 mg/kg
Experimental: (§1) Experimental CHI was induced by using a modified weight drop device (Chen et al; Flierl et al). Briefly, under 3% isoflurane anesthesia and supplementary oxygen (confirmed by the loss of response to pinch of paw), a midline longitudinal incision is performed, and the skull is exposed. A Teflon tipped cone (2 mm diameter) is placed upside down 2 mm lateral to the midline and 2 mm posterior to the bregma in the mid-coronal plane. The head is held in place and a 95 g weight is allowed to free-fall on the cone from a pre-established height, resulting in focal injury to the left hemisphere. The height of the free-fall weight is determined by the weight of the mouse and the desired CHI severity. In the present experiments, a free-fall of 6.5-7 cm was selected to induce a moderate neurological severity injury (NSS of 6-7 at 1 hr post injury). Sham mice were anesthetized and subjected to the same skin incision as described above, with no further trauma. […] At 1 h after CHI, the NSS is evaluated. […] Animals displaying apnea were monitored carefully and returned to their cage when adequate oxygenation was restored. • a. […]
The BM test is based on the instinct of the mouse to hide when exposed to environmental disturbances and is used to test spatial learning and memory. […] For the probe trial, the latency to reaching the escape box first is recorded. […]

[3] = tested on: mice subjected to a closed head injury (CHI); test: Novel Object Recognition (NOR) test after CHI; format: in vivo; details: 22 days after trauma; 4 hours after object replaced; oral gavage, 9 daily doses; Pg oil 100 mg/kg, citronellol 25 mg/kg, citronellyl formate 80 mg/kg
Experimental: as §1, with “severity.” for “severity. In the present experiments, a free-fall of 6.5-7 cm was selected to induce a moderate neurological severity injury (NSS of 6-7 at 1 hr post injury). Sham mice were anesthetized and subjected to the same skin incision as described above, with no further trauma.”
The novel object recognition (NOR test) was performed to assess short term memory 22d after trauma. […] The cumulative time spent by each mouse exploring the objects was recorded manually for a total of 5 min. […] Exploration of the object was determined as such when the mouse's nose was pointed in the direction of the object and the mouse was actively investigating it, directly touching it or being close to it. […] The time spent exploring each of the objects (novel or familiar) was recorded and calculated as the percentage of time from a total of 5 min. […]

[4] = tested on: mice subjected to a closed head injury (CHI); test: Y maze spatial memory test after CHI; format: in vivo; details: 24 days after trauma; oral gavage, 9 daily doses; Pg oil 100 mg/kg, citronellol 25 mg/kg, citronellyl formate 80 mg/kg
Experimental: as §1, with “severity.” for “severity. In the present experiments, a free-fall of 6.5-7 cm was selected to induce a moderate neurological severity injury (NSS of 6-7 at 1 hr post injury). Sham mice were anesthetized and subjected to the same skin incision as described above, with no further trauma.”
At 24 days post CHI, the Y maze spatial memory test was preformed to evaluate short term spatial memory. […] Short-term memory is reflected by the Preference index (PI), calculated as the amount of time spent in the new arm relative to the total amount of time spent in the “other” plus “new” arms. […]
The data was further analyzed by dividing the mice's performance into two groups: mice with (+) positive y-axis values (which represent a good spatial memory) and mice with negative (−) y-axis values (which represent spatial memory loss).

[5] = tested on: mice subjected to a closed head injury (CHI); test: Neurological Severity Score (NSS) after closed head injury; format: in vivo; details: oral gavage, 9 daily doses over 2 weeks starting 24 h after CHI; Pg oil 100 mg/kg, citronellol 25 mg/kg, citronellyl formate 80 mg/kg; from day 7 up to 30 days after trauma
Experimental: as §1, with “injury).” for “injury). Sham mice were anesthetized and subjected to the same skin incision as described above, with no further trauma.”
The functional status of the mice was evaluated according to the neurobehavioral score, known as the Neurological Severity Score (NSS), which consists of several tests that assess reflexes, alertness, coordination, and motor abilities. […]
The neurological severity score (NSS) was determined for each of the experimental groups of mice (details as described above) starting 1 hour after the trauma.

Chain of acetyl choline esterase (P22303 32-614): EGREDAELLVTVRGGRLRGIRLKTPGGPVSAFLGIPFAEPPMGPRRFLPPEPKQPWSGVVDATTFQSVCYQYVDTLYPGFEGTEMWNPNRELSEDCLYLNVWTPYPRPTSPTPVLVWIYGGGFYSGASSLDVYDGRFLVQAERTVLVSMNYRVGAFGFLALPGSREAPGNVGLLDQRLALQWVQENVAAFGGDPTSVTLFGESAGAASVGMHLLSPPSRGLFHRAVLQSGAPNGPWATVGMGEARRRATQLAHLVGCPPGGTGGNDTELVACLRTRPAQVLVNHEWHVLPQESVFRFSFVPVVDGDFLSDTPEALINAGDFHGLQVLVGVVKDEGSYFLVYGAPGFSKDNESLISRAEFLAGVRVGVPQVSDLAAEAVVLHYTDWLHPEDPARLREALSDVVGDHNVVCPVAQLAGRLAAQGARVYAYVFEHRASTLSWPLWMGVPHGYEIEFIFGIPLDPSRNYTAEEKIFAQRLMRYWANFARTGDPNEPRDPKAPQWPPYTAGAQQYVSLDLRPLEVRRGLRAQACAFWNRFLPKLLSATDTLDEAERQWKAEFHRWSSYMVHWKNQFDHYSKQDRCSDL

Structure (SMILES) | inhibition of acetyl choline esterase activity [1] | Barnes maze learning performance (latency to escape box) [2] | preference/recognition of a novel object versus a familiar one (NOR) [3] | percent of mice that preferred the novel arm over the familiar arm (Y maze) [4] | reduction in the neurological severity score (NSS) compared with vehicle treated CHI mice [5]
CC(C)=CCC[C@H](C)CCO [(S) (−) citronellol] | inhibits in vitro the activity of the enzyme acetyl choline esterase |  |  |  | 
CC(C)=CCCC(C)CCO (stereo not drawn) [citronellol] |  | significant improvement, but only on day 2 | not able to prefer/recognize a novel object | About 54% | significant reduction
CC(C)=CCCC(C)CCOC=O (stereo not drawn) [citronellyl formate] |  | significant improvement, but only on day 2 | not able to prefer/recognize a novel object | About 54% | significant reduction
